{"source": "patent US9295190B2", "about": "“Seed treatment composition” (DSM IP ASSETS B.V., priority 2011, dated 2016)", "key": {"[1]": {"test_system": "Tomato (Solanum lycopersicum) seeds", "assay": "Germination of drum primed, encrusted tomato seeds", "assay_type": "in vivo", "conditions": "after both 10 and 19 days of incubation", "protocol": "(§1) Subsequently, the seeds were germinated in trays of sterile, buffered (i.e. with calcium nitrate to pH of 6.7) cocopeat, which is a stable growth medium commonly used and accepted for e.g. simulation of seed germination in the horticultural industry. The 50 seeds planted per treatment were subjected to an ambient temperature of minimally 1.4° C. during night time and maximally 26.9° C. during day time (average temperature 13.6° C.) for 19 days and continuously irrigated to field capacity. The average relative humidity during the trial was 72%. During the trial, the trays with cocopeat were irrigated 3 to 5 times per day. The trays were perforated at the bottom leading to direct removal of excess water. This way, the cocopeat could be kept at field capacity. After 15, 17 and 19 days, the germination percentage was determined according to ISTA standards (see Handbook International Rules for Seed Testing, Edition 2011, Chapter 5, pages 5-32, published by the International Seed Testing Association, Switzerland).\nTomato (Solanum lycopersicum) seeds were primed (i.e. brought to same germination level) using drum priming. Subsequently, the primed tomato seeds were either not treated further or encrusted with composition 6 of Table 1 according to the method as described in Example 1. […] After 10 and 19 days, the germination percentage was determined using the ISTA method described in Example 11."}, "[2]": {"test_system": "Watermelon (Citrullus lanatus) seeds", "assay": "Germination of coated watermelon seeds in cocopeat", "assay_type": "in vivo", "text": "Watermelon (Citrullus lanatus) seeds were untreated or coated with a composition comprising 1.5 gram polyvinylpyrrolidone and 9 gram natamycin product (i.e. Delvocid®, a product comprising 50% (w/w) natamycin) per kg of seed. This composition was applied as described in Example 10.\nas §1"}}}
{"smiles": "C[C@@H]1C/C=C/C=C/C=C/C=C/[C@H](O[C@@H]2O[C@H](C)[C@@H](O)[C@H](N)[C@@H]2O)C[C@@H]2O[C@](O)(C[C@@H](O)C[C@H]3O[C@@H]3/C=C/C(=O)O1)C[C@H](O)[C@H]2C(=O)O", "note": "[natamycin]", "values": [{"measurement": "Germination percentage in excess of the control seeds", "setting": "[1]", "value": 10, "unit": "%"}, {"measurement": "Germination percentage in excess of the untreated seeds", "setting": "[2]; after 15 days of incubation", "value": 18, "unit": "%"}, {"measurement": "Germination percentage in excess of the untreated seeds", "setting": "[2]; after 17 days of incubation", "value": 34, "unit": "%"}, {"measurement": "Germination percentage in excess of the untreated seeds", "setting": "[2]; after 19 days of incubation", "value": 38, "unit": "%"}]}
